Measured values from patent US9273057B2 (Bristol-Myers Squibb Company, priority 2012, dated 2016).
Counter-ions that a name gives are not always drawn.

These compounds were tested against CK2A1 (CK2α/β) (Homo sapiens, UniProt P68400) (assay: CK2 kinase assay, CK2A1 (CK2α/β)). Conditions: Table A; read-out: CK2A1 (CK2α/β) (IC50).
Format: biochemical

Chain of CK2A1 (CK2α/β) (P68400 whole entry, species assumed): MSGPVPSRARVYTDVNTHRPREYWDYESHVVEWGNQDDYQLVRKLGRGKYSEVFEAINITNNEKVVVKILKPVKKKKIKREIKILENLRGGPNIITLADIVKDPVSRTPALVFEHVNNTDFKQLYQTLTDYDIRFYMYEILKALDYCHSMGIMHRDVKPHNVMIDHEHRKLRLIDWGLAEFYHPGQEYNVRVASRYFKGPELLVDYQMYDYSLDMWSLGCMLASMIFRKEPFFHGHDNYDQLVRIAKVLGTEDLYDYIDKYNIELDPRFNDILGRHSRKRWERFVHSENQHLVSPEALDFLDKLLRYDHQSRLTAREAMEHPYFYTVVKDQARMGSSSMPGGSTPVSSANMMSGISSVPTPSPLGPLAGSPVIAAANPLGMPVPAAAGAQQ
Chain of CK2A1 (CK2α/β) (P67870 whole entry partner, species assumed): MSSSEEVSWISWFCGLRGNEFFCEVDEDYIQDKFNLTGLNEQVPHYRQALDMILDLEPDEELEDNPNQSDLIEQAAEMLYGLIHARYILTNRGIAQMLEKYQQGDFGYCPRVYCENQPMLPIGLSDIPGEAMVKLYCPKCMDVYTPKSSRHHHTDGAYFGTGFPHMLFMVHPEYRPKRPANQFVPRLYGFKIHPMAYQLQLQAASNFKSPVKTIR

IC50 [nM]	SMILES
2	CCNc1nc(Nc2cc(C#N)cc(N3CC[C@@H](NC(=O)OC)[C@H](OC(=O)[C@@H](NC(=O)[C@@H](N)CCCNC(=N)N)C(C)C)C3)c2Cl)nn2c(C#N)cnc12 [Example 823, (S)-(3R,4R)-1-(2-chloro-5-cyano-3-((7-cyano-4-(ethylamino)imidazo[2,1-f][1,2,4]triazin-2-yl)amino)phenyl)-4-((methoxycarbonyl)amino)piperidin-3-yl 2-((S)-2-amino-5-guanidinopentanamide)-3-methylbutanoate trihydrochloride]
4.77	N#Cc1cc(Nc2nc(NC3CC3)c3ncc(C#N)n3n2)c(Cl)c(N2CCC(N[C@@H]3CCCC[C@H]3F)CC2)c1 (racemic) [Example 128, (+/−)2-(2-chloro-5-cyano-3-(4-((1R,2S)-2-fluorocyclohexylamino)piperidin-1-yl)phenylamino)-4-(cyclopropylamino)imidazo [1,2-f][1,2,4]triazine-7-carbonitrile]
0.65	CNC(=O)CN1CCN(c2cc(C#N)cc(Nc3nc(NC4CC4)c4ncc(C#N)n4n3)c2Cl)CC1 [Example 611, 2-[4-(2-chloro-5-cyano-3-{[7-cyano-4-(cyclopropylamino)imidazo [2,1-f][1,2,4]triazin-2-yl]amino}phenyl)piperazin-1-yl]-N-methylacetamide]
0.51	N#Cc1cc(Nc2nc(NC3CC3)c3ncc(C#N)n3n2)c(Cl)c(N2CCN(C(=O)OCC3CCCO3)CC2)c1 (stereo not drawn) [Example 534, (tetrahydrofuran-2-yl)methyl 4-(2-chloro-5-cyano-3-((7-cyano-4-(cyclopropylamino)imidazo[2,1-f][1,2,4]triazin-2-yl)amino)phenyl)piperazine-1-carboxylate]
4.61	CCNc1nc(Nc2cc(C#N)cc(N3CC[C@@H](NC(=O)OC)[C@H](OC(=O)[C@@H](N)CCN)C3)c2Cl)nn2c(C#N)cnc12 [Example 812, (S)-(3R,4R)-1-(2-chloro-5-cyano-3-((7-cyano-4-(ethylamino)imidazo[2,1-f][1,2,4]triazin-2-yl)amino)phenyl)-4-((methoxycarbonyl)amino)piperidin-3-yl 2,4-diaminobutanoate dihydrochloride]
2.75	CCNc1nc(Nc2cc(C#N)cc(C3CCN(C4COC4)CC3)c2Cl)nn2c(C#N)cnc12 [Example 349, 2-((2-chloro-5-cyano-3-(1-(oxetan-3-yl)piperidin-4-yl)phenyl)amino)-4-(ethylamino)imidazo[2,1-f][1,2,4]triazine-7-carbonitrile]
0.59	N#Cc1cc(Nc2nc(NC3CC3)c3ncc(C#N)n3n2)c(Cl)c(N2CCN([C@H]3C[C@H](C#N)C3)CC2)c1 [Example 107, 2-((2-chloro-5-cyano-3-(4-(trans-3-cyanocyclobutyl)-1-piperazinyl)phenyl)amino)-4-(cyclopropylamino) imidazo[2,1-f][1,2,4] triazine-7-carbonitrite]
2.72	CCNc1nc(Nc2cc(C#N)cc(N3CC[C@@H](NC(=O)OC)[C@H](OC(=O)CNC(=O)[C@H](C)N)C3)c2Cl)nn2c(C#N)cnc12 [Example 821, (3R,4R)-1-(2-chloro-5-cyano-3-((7-cyano-4-(ethylamino)imidazo[2,1-f][1,2,4]triazin-2-yl)amino)phenyl)-4-((methoxycarbonyl)amino)piperidin-3-yl 2-((S)-2-aminopropanamido)acetate hydrochloride]
0.43	CN(CCN)c1cc(Cl)c(Nc2nc(NC3CC3)c3ncc(C#N)n3n2)cc1C#N [Example 412, 2-((4-((2-aminoethyl)(methyl)amino)-2-chloro-5-cyanophenyl)amino)-4-(cyclopropylamino)imidazo[2,1-f][1,2,4]triazine-7-carbonitrile]
0.96	N#Cc1cnc2c(NC3CC3)nc(Nc3cc(C(F)F)cc(N4CCNCC4)c3Cl)nn12 [Example 246, 2-((2-chloro-5-(difluoromethyl)-3-(1-piperazinyl)phenyl)amino)-4-(cyclopropylamino)imidazo[2,1-f][1,2,4]triazine-7-carbonitrile]
0.35	CCNc1nc(Nc2ccc3c(c2)c(C#N)cn3C2CCN(C[C@@H](O)CN3CCOCC3)CC2)nn2c(C#N)cnc12 [Example 830, (R)-2-((3-cyano-1-(1-(2-hydroxy-3-morpholinopropyl)piperidin-4-yl)-1H-indol-5-yl)amino)-4-(ethylamino)imidazo[2,1-f][1,2,4]triazine-7-carbonitrile]
1.94	CN1CCC(N2CC(O)(c3cc(C#N)cc(Nc4nc(NC5CC5)c5ncc(C#N)n5n4)c3Cl)C2)CC1 [Example 647, 2-((2-chloro-5-cyano-3-(3-hydroxy-1-(1-methylpiperidin-4-yl)azetidin-3-yl)phenyl)amino)-4-(cyclopropylamino)imidazo[2,1-f][1,2,4]triazine-7-carbonitrile]
0.97	CCNC(=O)OCC1CN(c2cc(C#N)cc(Nc3nc(NC4CC4)c4ncc(C#N)n4n3)c2Cl)CCO1 (racemic) [Example 699, (+/−)-(4-(2-chloro-5-cyano-3-((7-cyano-4-(cyclopropylamino)imidazo[2,1-f][1,2,4]triazin-2-yl)amino)phenyl)morpholin-2-yl)methyl ethylcarbamate]
1.23	N#Cc1cc(Nc2nc(NC3CC3)c3ncc(C#N)n3n2)c(F)c(N2CCN(C3(C#N)COC3)CC2)c1 [Example 555, 2-((5-cyano-3-(4-(3-cyanooxetan-3-yl)piperazin-1-yl)-2-fluorophenyl)amino)-4-(cyclopropylamino)imidazo[2,1-f][1,2,4]triazine-7-carbonitrile]
0.6	CCNc1nc(Nc2ccc3c(c2)c(C#N)cn3C2CCN(C3CN(C[C@H](C)O)C3)CC2)nn2c(C#N)cnc12 [Example 834, (S)-2-((3-cyano-1-(1-(1-(2-hydroxypropyl)azetidin-3-yl)piperidin-4-yl)-1H-indol-5-yl)amino)-4-(ethylamino)imidazo[2,1-f][1,2,4]triazine-7-carbonitrile]
0.66	CS(=O)(=O)N1CC(N2CCC(c3cc(C#N)cc(Nc4nc(NC5CC5)c5ncc(C#N)n5n4)c3Cl)CC2)C1 [Example 321, 2-((2-chloro-5-cyano-3-(1-(1-(methylsulfonyl)azetidin-3-yl)piperidin-4-yl)phenyl)amino)-4-(cyclopropylamino)imidazo[2,1-f][1,2,4]triazine-7-carbonitrile]
1.35	COC(=O)N[C@H]1CCN(c2cc(C#N)cc(Nc3nc(NC4CC4)c4ncc(C#N)n4n3)c2Cl)CC1N(C)C1COC1 (stereo partly drawn) [Example 763, methyl N-[(4S)-1-(2-chloro-5-cyano-3-{[7-cyano-4-(cyclopropylamino)imidazo [2,1-f][1,2,4]triazin-2-yl]amino}phenyl)-3-[methyl(oxetan-3-yl)amino]piperidin-4-yl]carbamate]
1.76	COC[C@H](NC[C@H]1CN(c2cc(C#N)cc(Nc3nc(NC4CC4)c4ncc(C#N)n4n3)c2Cl)CCN1C)C1CC1 [Example 706, 2-({2-chloro-5-cyano-3-[(3S)-3-({[(1R)-1-cyclopropyl-2-methoxyethyl]amino}methyl)-4-methylpiperazin-1-yl]phenyl}amino)-4-(cyclopropylamino)imidazo[2,1-f][1,2,4]triazine-7-carbonitrile]
